Experiments:
[1] = tested on: interstitial collagenase (MMP-1); assay: Inhibition of production of interstitial collagenase (MMP-1) in rabbit cartilage organ culture system, IL-1α stimulated; type: cell-based, rabbit (New Zealand White); settings: IL-1α 100 units/ml, 48 hours; rabbit articular cartilage; values only in FIG. 1
Experimental: After the articular cartilages were collected from the shoulder and knee of rabbits (New Zealand White Rabbits, male, 6 weeks old) and divided into small pieces, cultivation experiment was started using Dulbecco's MEM medium containing 0.2% lactoalbumin. The compounds to be tested were dissolved in dimethylsulfoxide (DMSO) and then added to the medium. The concentration of DMSO was 0.25% by volume to the medium. After 2 hours from addition of the compounds to be tested, 100 units/ml of interleukin-1α (hereinafter referred to as the IL-1α) was added as a stimulant, and the cultivation was performed for 48 hours. Thereafter, the activity of MMP-1 in the supernatant of the culture was measured. Collageno kit (CLN-100) (Cosmo Bio Co., Ltd.) was used for the measurement of MMP-1.
The results are shown as the value of the mean value±standard error (n=4 per a group). As the esculetin derivative of the present invention, 6-(β-2-acetamido-2-deoxy-D-glucopyranosyloxy)-7-(N,N-dimethylcarbamoyloxy)coumarin [Ib-2] was used.
The abscissa is the percentage of the amounts of MMP-1 produced by adding both IL-1α and the compound to be tested as compared to the amounts of MMP-1 produced by the addition of IL-1α alone. When neither IL-1α nor the compound to be tested were added as a control test, MMP-1 was hardly produced.

[2] = Pharmacokinetic analysis in mouse femoral head cartilage (FHC) model; type: in vivo, BALB/C female mice implanted with FHC of S. D. male rats; settings: oral, 534 mg/kg [Ib-2] vs esculetin 187 mg/kg; values only in FIG. 2
Experimental: The model mice were prepared in accordance with the method described in D. A. Willoughby et al., Agents Actions, vol. 38, pp. 126 to 134, 1993.
The left and right femoral head cartilages (FHC) were sterilely excised from S. D. male rats in a clean bench. The excised FHC's were washed with a Ham F-12 culture medium containing antibiotics and the wet weight was measured. Then, the FHC's were wrapped in two cotton sheets (about 1 cm×1 cm) and cooled with ice in the culture medium for storage until implantation. The FHC's were implanted sterilely under the dorsal skin of BALB/C female mice whose dorsal regions were shaved. The incisions were stitched, and then completely sealed with surgical adhesive (Toa Gosei, Japan).
The above mouse FHC model were used to pharmacokinetically compare esculetin and the esculetin derivative [Ib-2] of the present invention. Esculetin (187 mg/kg) and an equimolar amount, i.e., 534 mg/kg, of the esculetin derivative [Ib-2] of the present invention were administered orally three days after the implantation of the FHC. The FHC's were periodically removed and digested with papain. Then, an amount of the compounds taken up in the FHC was analyzed by high performance liquid chromatography. In the above experiments, three mice were used for each group.

[3] = tested on: Crj: CD-1 (ICR) male mice; assay: Acute toxicity, oral, male mice, 7-day observation; type: in vivo, mouse; settings: 1000 and 2000 mg/kg, 7 days
Experimental: (§1) The toxicity of the esculetin derivatives of the present invention was examined. Typical examples of the present derivatives were administered orally at a dose of 2000 mg/kg (body weight) to male mice and male rats which were then observed for seven days. No deaths and no remarkable toxicity were observed. The esculetin derivatives of the present invention are extremely safe compounds (see Example 13).
(§2) The acute toxicity of the esculetin derivatives of the present invention was examined using Crj: CD-1 (ICR) male mice (6 weeks old) and Wistar male rats (6 weeks old). After 6-(β-2-acetamido-2-deoxy-D-glucopyranosyloxy)-7-(N,N-dimethylcarbamoyloxy)coumarin [Ib-2] […] In the experiments as above, two animals were used for each group.

Wistar male rats = assay: Acute toxicity, oral, male rats, 7-day observation; type: in vivo, rat; settings: 1000 and 2000 mg/kg, 7 days
Experimental: as §1, §2

Structure (SMILES): CC(=O)N[C@H]1[C@H](Oc2cc3ccc(=O)oc3cc2OC(=O)N(C)C)O[C@H](CO)[C@@H](O)[C@@H]1O [Ib-2, 6-(β-2-acetamido-2-deoxy-D-glucopyranosyloxy)-7-(N,N-dimethylcarbamoyloxy)coumarin]
- amounts of MMP-1 released under IL-1α stimulated condition [1]: reduced the amounts of MMP-1 under IL-1α stimulated condition
- amount of compound taken up and retained in the FHC [2]: taken up and retained in the FHC for a long time in a higher concentration as compared to esculetin
- deaths [3]: No deaths were observed
- general state and body weight in comparison with the control group [3]: no change was observed
- deaths (Wistar male rats): No deaths were observed
- general state and body weight in comparison with the control group (Wistar male rats): no change was observed

Reference: patent US5731293A, “Esculetin derivatives, method for manufacture thereof, and pharmaceutical composition” (Kureha Chemical Industry Co., Ltd., priority 1994, dated 1998)
